Results reported in BigSolDB 2.1.

COc1cc(Cc2cnc(N)nc2N)cc(OC)c1OC
Details	solubility (mole fraction)
in THF, 276.05 K	0.000608
in THF, 281.81 K	0.000714
in THF, 287.31 K	0.000857
in THF, 292.65 K	0.000987
in THF, 298.08 K	0.00117
in THF, 303.12 K	0.00137
in THF, 306.95 K	0.00155
in THF, 311.69 K	0.00178
in THF, 316.74 K	0.00208
in THF, 321.34 K	0.00244
in THF, 326.91 K	0.00296
in THF, 333.87 K	0.00377
in acetone, 276.94 K	0.000456
in acetone, 282.12 K	0.00054
in acetone, 288.62 K	0.000664
in acetone, 292.94 K	0.00076
in acetone, 297.96 K	0.00089
in acetone, 304.17 K	0.00108
in acetone, 309.34 K	0.00128
in acetone, 314.34 K	0.00149
in acetone, 319.07 K	0.00173
in acetone, 323.51 K	0.00199
in ethanol, 281.15 K	0.000356
in ethanol, 287.25 K	0.000461
in ethanol, 292.64 K	0.000545
in ethanol, 297.95 K	0.000681
in ethanol, 302.05 K	0.000833
in ethanol, 307.85 K	0.00105
in ethanol, 311.35 K	0.00124
in ethanol, 315.24 K	0.00151
in ethanol, 318.85 K	0.00177
in ethanol, 323.95 K	0.00223
in ethanol, 326.65 K	0.00255
in ethanol, 330.66 K	0.00309
in ethanol, 335.25 K	0.00388
in isopropanol, 277.17 K	0.000109
in isopropanol, 282.82 K	0.000156
in isopropanol, 288.28 K	0.000202
in isopropanol, 293.13 K	0.000255
in isopropanol, 297.57 K	0.000322
in isopropanol, 304.04 K	0.000468
in isopropanol, 309.36 K	0.000644
in isopropanol, 315.13 K	0.00091
in isopropanol, 319.53 K	0.00117
in isopropanol, 324.04 K	0.00151
in isopropanol, 328.37 K	0.0019
in isopropanol, 333.64 K	0.00247
in methanol, 277.02 K	0.000828
in methanol, 282.85 K	0.001
in methanol, 288.09 K	0.0012
in methanol, 293.03 K	0.00143
in methanol, 298.17 K	0.00173
in methanol, 304.24 K	0.00217
in methanol, 309.36 K	0.00265
in methanol, 314.12 K	0.0032
in methanol, 319.06 K	0.00392
in methanol, 323.53 K	0.00471
in methanol, 328.15 K	0.00571
in methanol, 333.73 K	0.0072
in n-butanol, 276.35 K	0.000157
in n-butanol, 282.63 K	0.000254
in n-butanol, 287.96 K	0.000359
in n-butanol, 292.84 K	0.000473
in n-butanol, 298.46 K	0.000635
in n-butanol, 303.72 K	0.000844
in n-butanol, 308.84 K	0.00106
in n-butanol, 313.36 K	0.00133
in n-butanol, 318.45 K	0.00175
in n-butanol, 323.73 K	0.00235
in n-butanol, 329.21 K	0.00306
in n-butanol, 333.73 K	0.00386
in n-propanol, 277.35 K	0.000278
in n-propanol, 283.63 K	0.000328
in n-propanol, 288.97 K	0.000414
in n-propanol, 294.05 K	0.000531
in n-propanol, 298.93 K	0.000677
in n-propanol, 303.84 K	0.000866
in n-propanol, 308.44 K	0.00109
in n-propanol, 314.54 K	0.00148
in n-propanol, 319.17 K	0.00186
in n-propanol, 323.48 K	0.00231
in n-propanol, 328.57 K	0.00298
in n-propanol, 334.15 K	0.00392
in sec-butanol, 276.85 K	0.000153
in sec-butanol, 283.66 K	0.000179
in sec-butanol, 290.08 K	0.0003
in sec-butanol, 294.67 K	0.000422
in sec-butanol, 298.45 K	0.000562
in sec-butanol, 303.74 K	0.000758
in sec-butanol, 308.84 K	0.00101
in sec-butanol, 313.35 K	0.00131
in sec-butanol, 318.46 K	0.00172
in sec-butanol, 323.56 K	0.00231
in sec-butanol, 328.66 K	0.0029
in sec-butanol, 333.74 K	0.00377
